The values that follow come from US20230098944A1, “METHOD OF DECREASING AMYLOID BETA MONOMER LEVELS IN PATIENTS WITH COGNITIVE DECLINE” (Cognition Therapeutics, Inc., priority 2020, published 2023).

Like-named read-outs stand apart in the source and are kept apart here.

In data set [1] the test system is Aβ oligomers. As to the kind of experiment: Native Western Blot (82E1 antibody) measurement of Aβ oligomers in patient CSF (NCT03522129). It counts as in vivo, human.
Data set [2] is described as follows: Plasma and CSF pharmacokinetics from NCT03522129. It counts as in vivo, human. Conditions: single dose of CT1812 (560 mg); for AUC(0-t) / Cmax / Kp: 560 mg; for Kp: CSF/plasma.
The subject of the next data set is amyloid β monomer. As to conditions: human subjects treated for 28 days; see 62/976,325; cited from earlier work.
In data set [3] the test system is amyloid β oligomers and monomers. Conditions: animal models and preclinical data; cited from earlier work.
The subject of data set [4] is Aβ oligomers. As to the kind of experiment: Microimmunoelectrode (MIE) measurement of Aβ oligomers in patient CSF after single dose (NCT03522129). It counts as in vivo, human. The protocol:
(§1) Methods: A Phase 2 clinical trial (NCT03522129) was conducted enrolling patients with mild-to-moderate Alzheimer's disease (MMSE 18-26) into the Randomized, double-blind, placebo-controlled, single dose administration of CT1812 followed by hourly sampling of lumbar CSF via indwelling catheter for 24 hours. The primary objective of the study was to evaluate target engagement of CT1812 treatment by measuring the displacement of Aβ oligomers into cerebrospinal fluid (CSF). The was quantified by a measuring change from the baseline CSF Aβ oligomer concentration after dosing with CT1812 versus placebo. Microimmunoelectrodes (Yuede et al 2016) coated with oligomer-specific antibody, A11 were placed in CSF samples of Alzheimer's disease patient samples to detect soluble Aβ after a single dose of CT1812 (560 mg) or placebo. Results: Microimmunoelectrode (MIE) measurements of Aβ oligomers in CSF show a drug-dependent rise in Aβ oligomers over time.

For another data set, the system named is Aβ 40 and 42 monomers. As to the kind of experiment: Aβ 40 and 42 monomers in patient CSF after single dose (NCT03522129). It counts as in vivo, human. Conditions: single dose 560 mg, similar in all three patients including placebo. The protocol: as §1, with “[…] Percent change from baseline” for “Results: Microimmunoelectrode (MIE) measurements of Aβ oligomers in CSF show a drug-dependent rise”, “40 and 42 monomers were similar in all three patients (<50% increase). […] CSF Aβ oligomer levels were fit to a linear regression and the significance of the slope difference from zero was determined for each patient (FIG. 4 (measured by microimmunoelectrodes); FIG. 5 (measured by Western Blot)).” for “oligomers over time.”

The next data set relates to Patients. As to the kind of experiment: ADAS-COG score after 185 days of treatment versus placebo. Format: in vivo, human. Conditions: day 185, treated at least 6 months (185 days), FIG. 7. From the text:
Patients treated for at least 6 months (185 days) with CT1812 were compared with patients who received placebo.

Take `CC(C)(C)Oc1cc(CCC(C)(C)N2Cc3ccc(S(C)(=O)=O)cc3C2)ccc1O` [CT1812]: in the data set with Aβ oligomers [1] (Patients 1 and 3, p<0.001 for each patient, R^2=0.9808 and 0.3997, placebo slope not different from zero), the “linear slope of CSF Aβ oligomer level over time (Western Blot)” value was “significantly non-zero”. Further, in the data set with Aβ oligomers [1] (single dose 560 mg, hourly lumbar CSF for 24 hours, not seen in placebo patient), the “Aβ oligomer levels in CSF over time (Western Blot)” value was “apparent increase with time”. Also, the tmax in data set [2] (Plasma, Subject 90003) was 2.00 h; in data set [2] (human, CSF, Subject 90003, read-out: tmax), 3 h. The AUC(0-t) was 120 ng·h/mL in data set [2] (human, CSF, Subject 90001); 46.4 ng·h/mL in data set [2] (human, CSF, Subject 90003); 3160 ng·h/mL in data set [2] (human, plasma, Subject 90001); 1210 ng·h/mL in data set [2] (human, plasma, Subject 90003). Also, the Cmax in data set [2] (human, CSF, Subject 90001) is 24.9 ng/mL; in data set [2] (human, CSF, Subject 90003) it was 7.27 ng/mL; in data set [2] (human, plasma, Subject 90001), 695 ng/mL; in data set [2] (human, plasma, Subject 90003), 250 ng/mL. Moreover, the Kp in data set [2] (human, Subject 90001, read-out: CSF/Plasma Ratio based on AUC0-last) was 0.0381; in data set [2] (human, Subject 90001, read-out: CSF/Plasma Ratio based on Cmax), 0.0358; in data set [2] (human, Subject 90003, read-out: CSF/Plasma Ratio based on AUC0-last), 0.0384; in data set [2] (human, Subject 90003, read-out: CSF/Plasma Ratio based on Cmax), 0.0291. In the data set with amyloid β monomer, the “amyloid β monomer concentration in the cerebral spinal fluid or interstitial fluid” value is “no change”. Moreover, the “amyloid β oligomer concentration in cerebral spinal fluid and brain interstitial fluid” value in data set [3] was “selectively displace oligomers and increase their concentration”. Further, the “concentration of amyloid β monomers” value in data set [3] is on record as “had not effect”. Besides, the “linear slope of CSF Aβ oligomer level over time (MIE)” value with Aβ oligomers [4] (Patients 1 and 3, p<0.001 for each patient, R^2=0.7720 and 0.7898, placebo slope not different from zero) is recorded as “significantly non-zero”. For the same compound, in the data set on Aβ oligomers [4] (single dose 560 mg, hourly lumbar CSF for 24 hours, mild-to-moderate Alzheimer's disease patients, not seen in placebo patient), the “Aβ oligomer levels in CSF over time (MIE)” value is “apparent increase with time”. For the same compound, the “Aβ oligomer increase, percent change from baseline in CSF” value in the data set on Aβ oligomers [4] (two treated patients, single dose 560 mg, no increase in placebo-treated patient, FIG. 4 (MIE), FIG. 5 (Western Blot)) is listed as “more than 200%”. Also, the “Percent change from baseline in Aβ 40 and 42 monomers (increase)” value in the data set with Aβ 40 and 42 monomers is reported as under 50%. The “difference in Alzheimer's Disease Assessment Score (ADAS-COG) between treated and untreated patients” value with Patients is given as “three-point difference”.

For orientation: AUC(0-t) means the area under the concentration-time curve up to a stated or last time point. High values mean more exposure, low ones less exposure. The Cmax is the highest concentration seen after dosing.
